This test concerns HCV 1b genotype. Kind of test: HCV Replicon assay (HCV 1b genotype). The class given is cell-based, Hepatitis C virus. To be noted: Hepatitis C virus, HCV 1b genotype replicon. The method in brief:
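HCV-neo replicon cells, wild-type plus lines carrying NS5A-region mutations, were exposed to compound; luciferase-reporter replicon variants were also used.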

Setting [1] is: Effective 50% inhibitory concentration, read-out: 1b EC50.
Setting [2] is: class symbol, read-out: Range (EC50 values against HCV 1b).

Molecules are shown by their SMILES. Like-named read-outs stand apart in the source and are kept apart here.

Take `O=C([C@H](O)c1ccccc1)N1CCC[C@H]1c1nc(-c2ccc(Oc3ccc(-c4cnc([C@@H]5CCCN5C(=O)[C@H](O)c5ccccc5)[nH]4)cc3)cc2)c[nH]1` [OL-2, (1R)-2-((2S)-2-(4-(4-(4-(2-((2S)-1-((2R)-2-hydroxy-2-phenylacetyl)-2-pyrrolidinyl)-1H-imidazol-5-yl)phenoxy)phenyl)-1H-imidazol-2-yl)-1-pyrrolidinyl)-2-oxo-1-phenylethanol]: the EC50 is, setting by setting: under setting [1], 9.1 nM; under setting [2], 1 to 9.9 nM.

For `COC(=O)N[C@@H](C(=O)N1CCC[C@H]1c1nc(-c2ccc(Oc3ccc(-c4c[nH]c([C@@H]5CCCN5C(=O)[C@H](NC(=O)OC)c5ccccc5)n4)cc3)cc2)c[nH]1)c1ccccc1` [OL-3, dimethyl (oxybis(4,1-phenylene-1H-imidazole-4,2-diyl(2S)-2,1-pyrrolidinediyl((1R)-2-oxo-1-phenyl-2,1-ethanediyl)))biscarbamate], the EC50 under setting [2] lay within 1 to 9.9 nM.

On to `CN(C)[C@@H](C(=O)N1CCC[C@H]1c1ncc(-c2ccc(Oc3cccc(-c4cnc([C@@H]5CCCN5C(=O)[C@@H](c5ccccc5)N(C)C)[nH]4)c3)cc2)[nH]1)c1ccccc1` [OL-4, (1R)-2-((2S)-2-(4-(3-(4-(2-((2S)-1-((2R)-2-(dimethylamino)-2-phenylacetyl)-2-pyrrolidinyl)-1H-imidazol-4-yl)phenoxy)phenyl)-1H-imidazol-2-yl)-1-pyrrolidinyl)-N,N-dimethyl-2-oxo-1-phenylethanamine], for which the EC50 is 0.07 nM under setting [1] and 0.002 to 0.099 nM under setting [2].

In the case of `O=C([C@H](O)c1ccccc1)N1CCC[C@H]1c1nc(-c2ccc(Oc3cccc(-c4c[nH]c([C@@H]5CCCN5C(=O)[C@H](O)c5ccccc5)n4)c3)cc2)c[nH]1` [OL-5, (1R)-2-((2S)-2-(4-(3-(4-(2-((2S)-1-((2R)-2-hydroxy-2-phenylacetyl)-2-pyrrolidinyl)-1H-imidazol-4-yl)phenoxy)phenyl)-1H-imidazol-2-yl)-1-pyrrolidinyl)-2-oxo-1-phenylethanol], the EC50 under setting [1] is 80 nM and the EC50 under setting [2] was in the range of 10 to 350 nM.

In the case of `COC(=O)N[C@@H](C(=O)N1CCC[C@H]1c1nc(-c2ccc(Oc3cccc(-c4c[nH]c([C@@H]5CCCN5C(=O)[C@H](NC(=O)OC)c5ccccc5)n4)c3)cc2)c[nH]1)c1ccccc1` [OL-6, methyl ((1R)-2-((2S)-2-(4-(3-(4-(2-((2S)-1-((2R)-2-((methoxycarbonyl)amino)-2-phenylacetyl)-2-pyrrolidinyl)-1H-imidazol-4-yl)phenoxy)phenyl)-1H-imidazol-2-yl)-1-pyrrolidinyl)-2-oxo-1-phenylethyl)carbamate], the EC50 under setting [2] was in the range of 0.002 to 0.099 nM.

In the case of `CN(C)[C@@H](C(=O)N1CCC[C@H]1c1ncc(-c2ccc(COc3ccc(-c4cnc([C@@H]5CCCN5C(=O)[C@@H](c5ccccc5)N(C)C)[nH]4)cc3)cc2)[nH]1)c1ccccc1` [OL-7, (1R)-2-((2S)-2-(4-(4-((4-(2-((2S)-1-((2R)-2-(dimethylamino)-2-phenylacetyl)-2-pyrrolidinyl)-1H-imidazol-4-yl)benzyl)oxy)phenyl)-1H-imidazol-2-yl)-1-pyrrolidinyl)-N,N-dimethyl-2-oxo-1-phenylethanamine], under setting [2], the EC50 lay in the range of 0.002 to 0.099 nM.

Consider `COC(=O)N[C@@H](C(=O)N1CCC[C@H]1c1nc(-c2ccc(COc3ccc(-c4c[nH]c([C@@H]5CCCN5C(=O)[C@H](NC(=O)OC)c5ccccc5)n4)cc3)cc2)c[nH]1)c1ccccc1` [OL-8, methyl ((1R)-2-((2S)-2-(4-(4-((4-(2-((2S)-1-((2R)-2-((methoxycarbonyl)amino)-2-phenylacetyl)-2-pyrrolidinyl)-1H-imidazol-4-yl)benzyl)oxy)phenyl)-1H-imidazol-2-yl)-1-pyrrolidinyl)-2-oxo-1-phenylethyl)carbamate], for which the EC50 under setting [2] is 0.002 to 0.099 nM.

These data come from patent US8796466B2, “Hepatitis C virus inhibitors” (Bristol-Myers Squibb Company, priority 2009, dated 2014).
